Measurements as given in publication PMC10067442, “In vivo quantitative high-throughput screening for drug discovery and comparative toxicology” (Disease Models & Mechanisms, 2023).
Entries after “also recorded” stand apart in the source; their conditions may differ. Residues, ends and D or L forms follow the SMILES beside them. *: point of attachment. Cbz = O=C(OCc1ccccc1)*

How the values were obtained:
Assay type in all cases: in vivo, Caenorhabditis elegans
C. elegans strain PE254 [1] = experiment: Life-stage distribution analysis by COPAS flow cytometry after 7-day treatment; conditions: 7-day treatment at ∼EC75-80, mixed population of 2000 worms/well
Method: After 7 days of compound treatment in six-well culture plates seeded with a mixed population of 2000 C. elegans strain PE254, a life-stage distribution analysis was determined by TOF and EC using the COPAS FP BioSorter, followed by bulk collection in a 50 ml conical tube for use in proteomics studies.

C. elegans strain PE254 [2] = experiment: C. elegans LSC qHTS viability assay, Anti-Infectives library primary screen (BG-fed, 384-well); conditions: for activity on C. elegans viability in primary qHTS (in words): seven-point titration; for EC50: internal control, 16-point titration, six replicate wells, read-out: Treatment day, EC50 (GFP area)
Method: Levamisole, ivermectin and albendazole were purchased from Sigma-Aldrich. Stock solutions of all compounds were prepared at 10 mM in DMSO, and ivermectin was diluted to a 10 µM working dilution in DMSO. […] Of these, 284 (38%) are approved for clinical use in the United States, 32 (4%) were previously marketed for use in the United States, and 62 (8%) are used clinically outside of the United States. […] DMSO stock solutions of were arrayed in Echo-qualified 384-well cyclic olefin copolymer plates (Labcyte) in qHTS inter-plate dilution with seven concentrations, 1:5 dilution, resulting in a final concentration range of 2.5–20 mM high concentration titrated to 160 nM to 1.28 µM low concentration ([Yasgar et al., 2008]). ‘Assay-ready’ plates were prepared in 384-well uClear microtiter plates (Greiner BioOne), with compounds acoustically dispensed at 250 nl per well with an Echo 555 in the above inter-plate titration array. Two plates with DMSO added across the compound field at the same volume were prepared as screening controls (‘uniformity plates’). DMSO vehicle control was added to every well of column 1, and levamisole cytotoxicity control was added at a high concentration of 10 mM in wells 1–8 and titrated 1:3, starting at a high concentration of 10 mM to 4.57 µM in wells 9–16 of column 2 of every plate. Additionally, ivermectin, levamisol and albendazole were plated as internal controls on one assay plate in 16-point, 1:2 titration down six replicate columns per compound, starting at a high concentration of 10 µM (ivermectin) or 10 mM (levamisole and albendazole). Assay-ready plates were sealed and frozen at −80°C until use.
C. elegans strain PE254 were collected from 12 NGM plates as above, transferred to 250 ml S medium supplemented with OP50 E. coli pellet collected from 2 l overnight culture, and grown for 5 days at 21°C with vigorous shaking in an Incu-Shaker Mini Shaking Incubator (Benchmark Scientific, Inc.). Eggs were axenized as above and hatched overnight in M9 buffer at 21°C and shaken at 65 rpm. Assay ready plates were thawed and allowed to equilibrate to ambient temperature. BGs in S medium (30 µl/well) at an OD600=0.85 were manually added across plates with a Capp pipette. Synchronized L1 worms from above were collected, diluted and plated at ten worms/30 µl/well with a Capp pipette into assay-ready microtiter plates pre-plated with BGs and compounds (240-fold dilution). […] No ethical approval or guidance is needed for working with nematodes.
Data from the Anti-Infectives screen were normalized by plate to corresponding intra-plate controls as previously described ([Inglese et al., 2006]). Assay statistics were calculated using the same respective controls. Total object ‘GFP’ area (µm^2) and number of worms were normalized to the average signal of DMSO-treated wells as zero percent neutral control, and the average signal of 41.7 µM levamisole-treated wells as −100% activity. In-house software was used to fit the resulting inter-plate titration data to the standard Hill equation, and concentration–response curves were classified by activity as previously described ([Southall et al., 2009]). Curve fits assignments of −1.1, −1.2, −2.1, −2.2 and −3 were considered active and visually confirmed.

C. elegans strain PE254 [3] = experiment: Follow-up 11-point re-test, C. elegans LSC viability; conditions: 11-point titration, day 7, GFP area and worm number
Method: C. elegans strain PE254 were collected from six NGM plates and washed. […] Assay-ready plates were prepared as above with an 11-point, 1:3 titration of 96 compounds identified as active from the qHTS screen based on curve classification and maximum response. […] Data were normalized as above, and concentration–response curves were fit in Prism with nonlinear regression log(agonist) versus response–variable slope (four parameters) fit.

C. elegans strain PE254 [4] = experiment: 384-well LSC C. elegans viability assay, life-stage sorted worms on BGs or OP50 live bacteria (assay development); conditions: all life stages grown on BGs, by day 1; read-out: half-maximal effective concentration (EC50)
Method: Strain PE254 worms were collected from eight NGM plates as above. The mixed population of C. elegans was resuspended in 30 ml 1× S basal buffer and plated at ten GFP worms per well of each life stage into respective wells of 384-well uClear microtiter plates with the COPAS biosorter run with the calibration protocol and settings from above. E. coli BGs diluted to OD600=0.6 or OP50 live bacteria diluted to OD600=0.05, 0.10, 0.15 or 0.2 in S medium were added to respective plates at 30 μl per well manually with a Capp pipette (BioVentures, Inc.). […] Plates were covered with a Breath-Easy seal (Thermo Fisher Scientific) and weighted metal lids with gas exchange pores (Fujifilm Wako Automation Corp.). Worms were grown in the presence of compound or DMSO for 7 days at 21°C and 65 rpm in an Incu-Shaker (Benchmark Scientific). Worms were imaged every 24–72 h on an Acumen eX3 laser scanning cytometer (STP Labtech). Plates were read with default reader settings, with scan 1 488 nm laser, green (FL-2) detection channel, 400 voltage, sensitivity of 2 and triggered in the green PMT. Green objects detected by the reader were identified as worms based on the filtered FL-2 object parameters perimeter (100-2200), area (1000-180,000), and peak intensity (150-1500). Viability was monitored as an increase in GFP fluorescence quantified as total number and total object area (µm^2) of FL-2 filtered objects per well. LSC data were collected using cellista 4 (version 4.3.4.0, STP Labtech).
Concentration–response curves for average total filtered FL-2 object area (‘GFP area’) and total filtered FL-2 number of objects (‘number of worms’) for each respective compound were fit with the nonlinear regression log (agonist) versus response–variable slope (four parameters) algorithm in Prism (GraphPad Software). Hillslope and/or EC50 constraints were applied as needed to all life stages per compound across the 7-day time course, and EC50 values were calculated. […] (3) [drawing 3] where σ is the mean signal and µ is the standard deviation for the treated (p) or neutral (n) controls.

| Molecule | effect on life stage viability (in words) (C. elegans strain PE254 [1]) | activity on C. elegans viability in primary qHTS (in words) (C. elegans strain PE254 [2]; GFP area) | activity on C. elegans viability in follow-up (in words) (C. elegans strain PE254 [3]) | further results |
| --- | --- | --- | --- | --- |
| C[C@H](NC(=O)[C@@H](O)c1cc(F)cc(F)c1)C(=O)N[C@@H]1C(=O)N(C)c2ccccc2-c2ccccc21 [LY-411575] | affecting life-stage progression or number |  |  |  |
| CC(C)C[C@@H](C=O)NC(=O)[C@H](CC(C)C)NC(=O)[C@H](CC(C)C)NC(=O)OCc1ccccc1 [MG-132] (Cbz-Leu-Leu-Leu-aldehyde) | no discernable effect | Inactive |  |  |
| Cc1sc2c(c1C)C(c1ccc(Cl)cc1)=N[C@@H](CC(=O)Nc1ccc(O)cc1)c1nnc(C)n1-2 [OTX-015] |  | inactive |  |  |
| COC[C@H](NC(=O)c1cnc(C)s1)C(=O)N[C@@H](COC)C(=O)N[C@@H](Cc1ccccc1)C(=O)[C@@]1(C)CO1 [Oprozomib] |  | Inactive |  |  |
| O=C(C1CCCCC1)N1CC(=O)N2CCc3ccccc3C2C1 (stereo not shown) [Praziquantel] | no effect | not detected; also recorded: not identified as active |  | curve classification (CC) (C. elegans strain PE254 [2]; GFP area, day 7): 4 |
| COC(=O)[C@]1(C)CC[C@]2(C)CC[C@]3(C)C4=CC=C5C(=CC(=O)C(O)=C5C)[C@]4(C)CC[C@@]3(C)[C@@H]2C1 [Pristimerin, pristimerin] |  |  | potent and/or efficacious toxicity |  |
| Cc1cc(/C=C/c2ccc3cc(N(C)C)ccc3[n+]2C)c(C)n1-c1ccccc1 [Pyrvinium pamoate] |  | active |  |  |
| O=C(/C=C\n1cnc(-c2cc(C(F)(F)F)cc(C(F)(F)F)c2)n1)NNc1cnccn1 [Selinexor] | inactive | low potency and efficacy | moderately active |  |
| Cn1cnc2c(F)c(Nc3ccc(Br)cc3Cl)c(C(=O)NOCCO)cc21 [Selumetinib] | no discernable effect |  |  | effect on life stage viability (in words) (C. elegans strain PE254 [1]; listed as 10): inactive |
| CC(=O)Nc1cccc(-n2c(=O)n(C3CC3)c(=O)c3c(Nc4ccc(I)cc4F)n(C)c(=O)c(C)c32)c1 [Trametinib] | potent larval-stage depletion |  |  | effect on life stage viability (in words) (C. elegans strain PE254 [1]; listed as 9): affecting life-stage progression or number |
| CC(C)(C)c1cc(C=C(C#N)C#N)cc(C(C)(C)C)c1O [Tyrphostin A9, tyrphostin A9] |  |  | best activity; also recorded: potent and/or efficacious toxicity |  |
| O=[N+]([O-])c1ccc(S(=O)(=O)N2CCN(c3ccnc4cc(Cl)ccc34)CC2)c([N+](=O)[O-])c1 [VR23] |  | Inactive |  |  |
| O=C(/C=C\n1cnc(-c2cc(C(F)(F)F)cc(C(F)(F)F)c2)n1)NNc1ccccn1 [Verdinexor, verdinexor] |  | low potency and efficacy | moderately active |  |
| C=CC(=O)N1C/C(=C\c2ccc([N+](=O)[O-])cc2)C(=O)/C(=C/c2ccc([N+](=O)[O-])cc2)C1 [b-AP15] |  | Inactive |  |  |
| Ivermectin |  | active |  | EC50 (C. elegans strain PE254 [2]; treatment day 2): 17 ± 3.9 nM; EC50 (C. elegans strain PE254 [2]; treatment day 3): 16.9 ± 2.3 nM; EC50 (C. elegans strain PE254 [2]; treatment day 4): 14 ± 1.7 nM; EC50 (C. elegans strain PE254 [2]; treatment day 5): 14.6 ± 1.1 nM; EC50 (C. elegans strain PE254 [2]; treatment day 6): 13.6 ± 1.1 nM; EC50 (C. elegans strain PE254 [2]; treatment day 7): 12.4 ± 1.2 nM; EC50 (C. elegans strain PE254 [4]): ~1 nM |
| oligomycin A |  |  | best activity; also recorded: potent and/or efficacious toxicity |  |
